Source: ChEMBL document CHEMBL5042524, “Discovery of Novel Histone Deacetylase 6 (HDAC6) Inhibitors with Enhanced Antitumor Immunity of Anti-PD-L1 Immunotherapy in Melanoma” (J Med Chem, 2022)
In brackets after ≈: the same amount, converted by molar mass.

Assays:
B16-F10 [1] = experiment: Potentiation of antitumor activity against mouse B16-F10 cells allografted in C57BL/6 mouse model assessed as decrease in PD-L1 expression level in presence of 2-(5-chloro-2-(3-cyanobenzyloxy)-4-((2-methylbiphenyl-3-yl)methoxy)benzylamino)-2-methylpropanoic acid by Western blot analysis relative to control; format: functional; parameters: scale not given: the % may be the effect or the level left
B16-F10 [2] = experiment: Antitumour activity against mouse B16-F10 cells allografted in C57BL/6 mouse model assessed as decrease in PD-L1 expression level by Western blot analysis relative to control; format: functional; parameters: scale not given: the % may be the effect or the level left
B16-F10 [3] = experiment: Antitumour activity against mouse B16-F10 cells allografted in C57BL/6 mouse model assessed as increase in CD3 positive/CD4 positive cells in tumor at 10 mg/kg, ip administered for 14 days by flow cytometry analysis (Rvb= 8.73%); format: functional; settings: time 14 day
B16-F10 [4] = experiment: Antitumour activity against mouse B16-F10 cells allografted in C57BL/6 mouse model assessed as increase in CD3 positive/CD8 positive cells in tumor at 10 mg/kg, ip administered for 14 days by flow cytometry analysis (Rvb= 6.65%); format: functional; settings: time 14 day
[5] = Toxicity in C57BL/6 mouse allografted with B16-F10 cells assessed as body weight loss at 10 mg/kg, ip administered daily for 14 days; format: organism-based; settings: in vivo, 336 h, time 14 day
A549 = experiment: cells; format: functional, cell-based; settings: Homo sapiens, A549, 48 h
Description: Antiproliferative activity against human A549 cells assessed as inhibition of cell proliferation measured after 48 hrs by MTT assay

B16-F10 [6] = experiment: cells; format: functional, cell-based; settings: Mus musculus, B16-F10, 48 h
Description: Antiproliferative activity against mouse B16-F10 cells assessed as inhibition of cell proliferation measured after 48 hrs by MTT assay

Histone deacetylase 8 = target: T1, Histone deacetylase 8 (Homo sapiens, UniProt Q9BY41); experiment: Inhibition of full length recombinant human C-terminal His tagged HDAC8 expressed in baculovirus infected Sf9 insect cells using Ac-Leu-GlyLys (Tfa)-AMC as substrate preincubated for 5 mins followed by substrate addition and measured after 30 mins by fluorescence microtiter plate reader assay
T1 sequence (Q9BY41 whole entry): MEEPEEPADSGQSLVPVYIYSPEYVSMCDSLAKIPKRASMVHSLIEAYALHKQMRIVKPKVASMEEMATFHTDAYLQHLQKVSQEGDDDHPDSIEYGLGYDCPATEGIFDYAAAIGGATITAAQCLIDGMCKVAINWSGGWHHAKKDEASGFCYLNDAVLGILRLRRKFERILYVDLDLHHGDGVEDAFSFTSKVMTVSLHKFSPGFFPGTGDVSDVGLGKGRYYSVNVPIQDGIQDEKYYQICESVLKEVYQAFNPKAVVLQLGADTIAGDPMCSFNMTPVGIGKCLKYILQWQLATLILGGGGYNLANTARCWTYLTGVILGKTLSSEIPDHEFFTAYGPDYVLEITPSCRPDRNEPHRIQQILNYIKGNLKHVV

MCF7 = experiment: cells; format: functional, cell-based; settings: Homo sapiens, MCF7, 48 h
Description: Antiproliferative activity against human MCF7 cells assessed as inhibition of cell proliferation measured after 48 hrs by MTT assay

B16-F10 [7] = experiment: Antitumor activity against mouse B16-F10 cells allografted in C57BL/6 mouse assessed as tumor growth inhibition at 50 mg/kg, ip administered daily for 14 days by caliper method (Rvb= 63%); format: functional; settings: 336 h, time 14 day, read-out: TGI
[8] = Antiproliferative activity against human YCC3/7 cells assessed as cell growth inhibition; format: functional, cell-based
[9] = Cytotoxicity against human Jurkat cells assessed as reduction in cell viability incubated for 72 hrs by CCK-8 assay
Histone deacetylase 1 = Histone deacetylase 1 (Homo sapiens, UniProt Q13547); experiment: Inhibition of recombinant human HDAC1 expressed in baculovirus expression system using Ac-Leu-Gly-Lys (Ac)-AMC as substrate preincubated for 5 mins followed by substrate addition and measured after 30 mins by fluorescence microtiter plate reader assay
HCT-116 = experiment: cells; format: functional, cell-based; settings: Homo sapiens, HCT-116, 48 h
Description: Antiproliferative activity against human HCT-116 cells assessed as inhibition of cell proliferation measured after 48 hrs by MTT assay

B16-F10 [10] = experiment: Antitumour activity against mouse B16-F10 cells allografted in C57BL/6 mouse model assessed as increase in acetylated alpha tubulin expression level in tumor at 50 mg/kg, ip measured after 14 days by […] based microscopic analysis (Rvb =1.77%); format: functional; settings: time 14 day
Histone deacetylase 3 = Histone deacetylase 3 (Homo sapiens, UniProt O15379); experiment: Inhibition of recombinant human His-tagged HDAC3 expressed in baculovirus insect cells using Ac-Leu-Gly-Lys (Ac)-AMC as substrate preincubated for 5 mins followed by substrate addition and measured after 30 mins by fluorescence microtiter plate reader assay
[11] = Toxicity in C57BL/6 mouse allografted with B16-F10 cells assessed as body weight loss at 50 mg/kg, ip administered daily for 14 days; format: organism-based; settings: in vivo, 336 h, time 14 day
[12] = Aqueous solubility of the compound incubated for 24 hrs by HPLC based shake-flask method; format: physicochemical; settings: buffer
[13] = Antiproliferative activity against human YCC-11 cells assessed as cell growth inhibition; format: functional, cell-based

Chain of Histone deacetylase 1 (Q13547 whole entry): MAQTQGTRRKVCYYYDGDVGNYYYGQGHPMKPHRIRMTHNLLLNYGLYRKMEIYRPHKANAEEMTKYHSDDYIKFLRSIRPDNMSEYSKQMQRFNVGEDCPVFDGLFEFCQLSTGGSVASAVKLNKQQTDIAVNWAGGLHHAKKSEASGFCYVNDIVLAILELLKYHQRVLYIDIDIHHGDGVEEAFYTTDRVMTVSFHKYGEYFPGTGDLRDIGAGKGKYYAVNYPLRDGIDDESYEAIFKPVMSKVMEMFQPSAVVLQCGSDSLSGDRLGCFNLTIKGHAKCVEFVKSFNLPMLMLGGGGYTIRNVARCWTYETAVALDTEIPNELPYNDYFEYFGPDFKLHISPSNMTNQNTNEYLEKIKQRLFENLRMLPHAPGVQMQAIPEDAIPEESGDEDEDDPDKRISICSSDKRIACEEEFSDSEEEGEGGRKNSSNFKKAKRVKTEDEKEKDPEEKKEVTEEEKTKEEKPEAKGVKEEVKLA
Chain of Histone deacetylase 3 (O15379 whole entry): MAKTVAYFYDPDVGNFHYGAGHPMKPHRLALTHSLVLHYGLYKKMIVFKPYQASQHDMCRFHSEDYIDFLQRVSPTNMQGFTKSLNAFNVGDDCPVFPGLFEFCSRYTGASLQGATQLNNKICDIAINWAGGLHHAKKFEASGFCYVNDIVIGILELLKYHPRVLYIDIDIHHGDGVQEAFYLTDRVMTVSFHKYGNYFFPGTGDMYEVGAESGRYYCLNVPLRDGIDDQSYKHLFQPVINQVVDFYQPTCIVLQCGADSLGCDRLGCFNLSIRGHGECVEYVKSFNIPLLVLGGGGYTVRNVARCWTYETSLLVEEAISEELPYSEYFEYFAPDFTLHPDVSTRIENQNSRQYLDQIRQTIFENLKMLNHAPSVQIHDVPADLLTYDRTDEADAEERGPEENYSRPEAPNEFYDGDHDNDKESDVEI

Structure (SMILES)	Activity (B16-F10 [1]) [%]	Activity (B16-F10 [2]) [%]	Activity (B16-F10 [3]) [%]	Activity (B16-F10 [4]) [%]	Activity [5]	IC50 (A549) [nM]	IC50 (B16-F10 [6]) [nM]	IC50 (Histone deacetylase 8) [nM]	IC50 (MCF7) [nM]	inhibition in vivo at 50 mg/kg (B16-F10 [7]) [%]	IC50 [8] [nM]	IC50 at 72 h [9] [nM]	IC50 (Histone deacetylase 1) [nM]	IC50 (HCT-116) [nM]	Activity (B16-F10 [10]) [%]	IC50 (Histone deacetylase 3) [nM]	Activity [11]	solubility thermodynamic at 24 h [12] [µg/mL]	IC50 [13] [nM]
Cc1c(COc2cc(OCc3cccc(C#N)c3)c(CNC(C)(C)C(=O)O)cc2Cl)cccc1-c1ccccc1	70	45	15.4	11.2	Non-Toxic														
CC(C)(C)OC(=O)Nc1ccc(-c2cc(C(=O)NCCCCCCC(=O)NO)no2)cc1						> 10000	9410	6210	2820	52	6250	610	260	1470	37.9	760	Non-Toxic	16.1 (≈ 36 µM)	4080
